Patent EP4603105A1, “PHARMACEUTICAL COMPOSITION CONTAINING CYCLIC COMPOUND HAVING SELECTIVE KRAS INHIBITORY EFFECT AGAINST HRAS AND NRAS” (CHUGAI SEIYAKU KABUSHIKI KAISHA, priority 2022, dated 2024)

Key:
[1] = test system: human ovarian cancer strain OV7; type: cell-based
Protocol: A test compound was dispensed into a U-bottom 384-well plate as 40 nL serially diluted dimethyl sulfoxide solutions using a liquid handler Echo (LABCYTE). As for human ovarian cancer strain OV7 (ECACC), a cell suspension was prepared so as to have 250 cells/40 µL in a DMEM/Ham's F-12 medium (Nacalai Tesque) supplemented with 5% fetal bovine serum (Sigma), 0.5 µg/mL hydrocortisone, and 10 µg/mL insulin. This cell suspension was dispensed in an amount of 40 µL per well into a plate containing the test compound, and cultured at 37°C in a 5% carbon dioxide gas incubator. Seven days later, 20 µL of CellTiter-Glo (registered trademark) (Promega) was added to each well and luminescence was measured.

[2] = test system: human bladder cancer strain UM-UC-3; type: cell-based
Protocol: A test compound was dispensed into a U-bottom 384-well plate as 40 nL serially diluted dimethyl sulfoxide solutions using a liquid handler Echo (LABCYTE). As for human bladder cancer strain UM-UC-3 (ATCC), a cell suspension was prepared so as to have 250 cells/40 µL in an MEM medium (Nacalai Tesque) supplemented with 10% fetal bovine serum (Sigma), an MEM non-essential amino acids solution (100X), and 1 mmol/L sodium pyruvate. This cell suspension was dispensed in an amount of 40 µL per well into a plate containing the test compound, and cultured at 37°C in a 5% carbon dioxide gas incubator. Seven days later, 20 µL of CellTiter-Glo (registered trademark) (Promega) was added to each well and luminescence was measured. […]

[3] = test system: human colorectal cancer strain GP2d; type: cell-based
Protocol: (§1) A test compound was dispensed into a U-bottom 384-well plate as 40 nL serially diluted dimethyl sulfoxide solutions using a liquid handler Echo (LABCYTE). As for human colorectal cancer strain GP2d (ECACC), a cell suspension was prepared so as to have 500 cells/40 µL in a Dulbecco's modified Eagle medium supplemented with 10% fetal bovine serum (Sigma). This cell suspension was dispensed in an amount of 40 µL per well into a plate containing the test compound, and cultured at 37°C in a 5% carbon dioxide gas incubator. Seven days later, 20 µL of CellTiter-Glo (registered trademark) (Promega) was added to each well and luminescence was measured.

[4] = test system: human gastric cancer strain SNU-1; type: cell-based
Protocol: A test compound was dispensed into a U-bottom 384-well plate as 40 nL serially diluted dimethyl sulfoxide solutions using a liquid handler Echo (LABCYTE). As for human gastric cancer strain SNU-1 (ATCC), a cell suspension was prepared so as to have 250 cells/40 µL in an RPMI-1640 medium (Sigma) supplemented with 10% fetal bovine serum (Sigma), a 2.5 g/L D-(+)-glucose solution, 10 mmol/L HEPES, and 1 mmol/L sodium pyruvate. This cell suspension was dispensed in an amount of 40 µL per well into a plate containing the test compound, and cultured at 37°C in a 5% carbon dioxide gas incubator. Seven days later, 20 µL of CellTiter-Glo (registered trademark) (Promega) was added to each well and luminescence was measured.

[5] = target: GDP-bound NRAS wild-type protein (Homo sapiens, UniProt P01111); experiment: Binding to NRAS by surface plasmon resonance (SPR), KD and KD ratio to KRAS
Procedure, shortened: (§2)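 Captured GDP-RAS (~100–300 RU) was exposed to increasing compound concentrations, 75 s per step, in running buffer with 10 µM GDP, 10 mM MgCl2 and 4% DMSO at pH 7.4.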

[6] = test system: human gastric cancer strain GSU; type: cell-based
Protocol: as §1, with “gastric” for “colorectal”, “GSU (Institute of Physical and Chemical Research),” for “GP2d (ECACC),”, “200” for “500”, “an RPMI-1640” for “a Dulbecco's modified Eagle”, “medium (Sigma)” for “medium”

[7] = target: GDP-bound KRAS wild-type protein (Homo sapiens, UniProt P01116); experiment: Binding to KRAS by surface plasmon resonance (SPR), dissociation constant KD
Procedure, shortened: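 Each cycle, GDP-bound biotin-Avi RAS was captured (~100–300 RU), compound concentrations were injected low to high for 75 s each at 100 µL/min, then the chip was regenerated. Buffer: HBS pH 7.4, 10 mM MgCl2, 10 µM GDP, 1 mM DTT, 4% DMSO; 30°C. KD from a 1:1 binding model.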

[8] = test system: human pancreatic cancer strain KP4; type: cell-based
Protocol: as §1, with “pancreatic” for “colorectal”, “KP4 (Institute of Physical and Chemical Research),” for “GP2d (ECACC),”, “DMEM/Ham's F-12” for “Dulbecco's modified Eagle”, “medium (Nacalai Tesque)” for “medium”

[9] = test system: human lung cancer strain NCI-H441; type: cell-based
Procedure, shortened: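 Step one: dispense the test compound in serial DMSO dilutions. Step three: add the reagent and measure […].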

HRAS wild-type protein = HRAS wild-type protein (Homo sapiens, UniProt P01112); experiment: Binding to HRAS by surface plasmon resonance (SPR), KD and KD ratio to KRAS
Procedure, shortened: as §2

[10] = ratio of KD for GDP-bound NRAS wild-type protein to KD for KRAS
[11] = ratio of KD for HRAS wild-type protein to KD for KRAS

Chain of GDP-bound NRAS wild-type protein (P01111 whole entry): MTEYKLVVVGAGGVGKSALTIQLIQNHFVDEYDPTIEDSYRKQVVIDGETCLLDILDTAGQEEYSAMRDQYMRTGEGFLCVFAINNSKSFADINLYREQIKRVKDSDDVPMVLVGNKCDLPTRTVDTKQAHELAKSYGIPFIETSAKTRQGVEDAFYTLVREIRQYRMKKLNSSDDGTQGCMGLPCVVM
Chain of HRAS wild-type protein (P01112 whole entry): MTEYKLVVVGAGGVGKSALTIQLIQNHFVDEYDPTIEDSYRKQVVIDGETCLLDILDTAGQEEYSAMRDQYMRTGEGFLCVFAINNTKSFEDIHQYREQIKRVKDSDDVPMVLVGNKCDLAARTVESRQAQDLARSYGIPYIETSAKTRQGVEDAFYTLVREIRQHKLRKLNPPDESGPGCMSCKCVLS
Chain of GDP-bound KRAS wild-type protein (P01116 1-188 isoform P01116-2): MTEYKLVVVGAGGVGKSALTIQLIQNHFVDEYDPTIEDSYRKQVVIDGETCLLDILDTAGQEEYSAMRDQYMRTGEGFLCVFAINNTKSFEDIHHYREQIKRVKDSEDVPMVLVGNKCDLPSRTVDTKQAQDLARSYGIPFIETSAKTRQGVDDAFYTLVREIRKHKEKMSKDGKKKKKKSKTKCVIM

| SMILES | IC50 [1] | IC50 [2] | IC50 [3] | IC50 [4] | NRAS /KRAS [5, 10] | IC50 [6] | Kd ([7]; 1:1 binding model) | IC50 [8] | IC50 [9] | HRAS /KRAS (HRAS wild-type protein; [11]) | Kd ([7]; Single Cycle Kinetics) | NRAS /KRAS ([5]; ratio of the KD value with respect to GDP-bound NRAS wild-type protein to the KD value with respect to KRAS) | HRAS /KRAS (HRAS wild-type protein; ratio of the KD value with respect to HRAS wild-type protein to the KD value with respect to KRAS) |
| --- | --- | --- | --- | --- | --- | --- | --- | --- | --- | --- | --- | --- | --- |
| CCO[C@@H]1C[C@H]2C(=O)NC3(CC(C)(C)C3)C(=O)N(C)[C@@H](CC(C)(C)C)C(=O)N(C)[C@H](C(=O)N(C)C)CC(=O)N(C)[C@@H](COC)C(=O)N[C@@H]([C@@H](C)CC)C(=O)N(C3CC3)CC(=O)N(C)[C@H]3C/C=C\CCN(C3=O)[C@@H](Cc3ccc(C(F)(F)F)cc3)C(=O)N(C)CC(=O)N[C@@H](CCc3ccc(Cl)c(Cl)c3)C(=O)N2C1 [PP2750, (2S,8S,12R,14S,20S,23S,27S,30S,36S,38Z)-32-cyclopropyl-8-[2-(3,4-dichlorophenyl)ethyl]-20-(2,2-dimethylpropyl)-12-ethoxy-27-(methoxymethyl)-N,N,3',3',4,19,22,26,35-nonamethyl-30-[(1S)-1-methylpropyl]-3,6,9,15,18,21,25,28,31,34,42-undecaoxo-2-[[4-(trifluoromethyl)phenyl]methyl]spiro[1,4,7,10,16,19,22,26,29,32,35-undecazatricyclo[34.5.1.0^10,14]dotetracont-38-ene-17,1'-cyclobutane]-23-carboxamide] | 0.0318 µM | 0.0206 µM | 0.0236 µM | 0.0242 µM | AA (a compound having 20 or more is denoted as AA) | 0.0019 µM | 0.00054 µM | 0.056 µM | 0.019 µM | A (a compound having 10 or more and less than 20 is denoted as A) |  |  |  |
| CCO[C@@H]1C[C@H]2C(=O)NC3(CCCC3)C(=O)N(C)[C@@H](C3CCCC3)C(=O)N(C)[C@H](C(=O)N(C)C)CC(=O)N(C)[C@@H]([C@@H](C)OC)C(=O)N[C@@H]([C@@H](C)CC)C(=O)N(C)CC(=O)N(C)[C@H]3C/C=C\CCN(C3=O)[C@@H](Cc3ccc(C)cc3)C(=O)N(C)CC(=O)N[C@@H](CCc3cc(F)c(C(F)(F)F)c(F)c3)C(=O)N2C1 [PP3481, (2S,8S,12R,14S,20S,23S,27S,30S,36S,38Z)-20-cyclopentyl-8-[2-[3,5-difluoro-4-(trifluoromethyl)phenyl]ethyl]-12-ethoxy-27-[(1R)-1-methoxyethyl]-N,N,4,19,22,26,32,35-octamethyl-30-[(1S)-1-methylpropyl]-3,6,9,15,18,21,25,28,31,34,42-undecaoxo-2-(p-tolylmethyl)spiro[1,4,7,10,16,19,22,26,29,32,35-undecazatricyclo[34.5.1.0^10,14]dotetracont-38-ene-17,1'-cyclopentane]-23-carboxamide] | 0.0248 µM | 0.0087 µM | 0.0091 µM | 0.0082 µM | A (a compound having 10 or more and less than 20 is denoted as A) | 0.0021 µM |  | 0.0255 µM | 0.0136 µM | A (a compound having 10 or more and less than 20 is denoted as A) | 0.00012 µM |  |  |
| CCC[C@H]1C(=O)N[C@@H]([C@@H](C)CC)C(=O)N(C2CC2)CC(=O)N(C)[C@H]2C/C=C\CCN(C2=O)[C@@H](Cc2ccc(C(F)(F)F)cc2)C(=O)N(C)CC(=O)N[C@@H](CCc2cc(F)c(C(F)(F)F)c(F)c2)C(=O)N2C[C@H](OCC)C[C@H]2C(=O)NC2(CC(C)(C)C2)C(=O)N(C)[C@@H](CC(C)(C)C)C(=O)N(C)[C@H](C(=O)N(C)C)CC(=O)N1C [PP2742] | 0.0204 µM | 0.0154 µM | 0.012 µM | 0.0267 µM | AA (a compound having 20 or more is denoted as AA) | 0.0032 µM | 0.00026 µM | 0.0287 µM | 0.0149 µM | A (a compound having 10 or more and less than 20 is denoted as A) |  |  |  |
| CCO[C@@H]1C[C@H]2C(=O)NC3(CCCC3)C(=O)N(C)[C@@H](C3CCCC3)C(=O)N(C)[C@H](C(=O)N(C)C)CC(=O)N(C)[C@@H](CC(C)C)C(=O)N[C@@H]([C@@H](C)CC)C(=O)N(C)CC(=O)N(C)[C@H]3C/C(F)=C\CCN(C3=O)[C@@H](Cc3ccc(C(F)(F)F)cc3)C(=O)N(C)CC(=O)N[C@@H](CCc3cc(F)c(C(F)(F)F)c(F)c3)C(=O)N2C1 [PP3510, (2S,8S,12R,14S,20S,23S,27S,30S,36S,38E)-20-cyclopentyl-8-[2-[3,5-difluoro-4-(trifluoromethyl)phenyl]ethyl]-12-ethoxy-38-fluoro-27-isobutyl-N,N,4,19,22,26,32,35-octamethyl-30-[(1S)-1-methylpropyl]-3,6,9,15,18,21,25,28,31,34,42-undecaoxo-2-[[4-(trifluoromethyl)phenyl]methyl]spiro[1,4,7,10,16,19,22,26,29,32,35-undecazatricyclo[34.5.1.0^10,14]dotetracont-38-ene-17,1'-cyclopentane]-23-carboxamide] | 0.0236 µM | 0.0115 µM | 0.0137 µM | 0.0066 µM | B (a compound having 3 or more and less than 10 is denoted as B) | 0.0012 µM |  | 0.0168 µM | 0.0111 µM | B (a compound having 3 or more and less than 10 is denoted as B) |  |  |  |
| CCC[C@H]1C(=O)N[C@@H]([C@@H](C)CC)C(=O)N2CCC[C@H]2C(=O)N(C)[C@H]2C/C=C\CCN(C2=O)[C@@H](Cc2ccc(C(F)(F)F)cc2)C(=O)N(C)CC(=O)N[C@@H](CCc2ccc(C(F)(F)F)c(OC)c2)C(=O)N2C[C@H](OCC)C[C@H]2C(=O)N(C)C2(CCC2)C(=O)N(C)[C@@H](C2CCCC2)C(=O)N(C)[C@H](C(=O)N(C)C)CC(=O)N1C [PP2320, (1S,4S,10S,13S,17S,20S,26S,28R,32S,38S,42Z)-20-cyclopentyl-28-ethoxy-32-[2-[3-methoxy-4-(trifluoromethyl)phenyl]ethyl]-N,N,2,14,18,21,24,36-octamethyl-10-[(1S)-1-methylpropyl]-3,9,12,15,19,22,25,31,34,37,45-undecaoxo-13-propyl-38-[[4-(trifluoromethyl)phenyl]methyl]spiro[2,8, 11,14,18,21,24,30,33,36,39-undecazatetracyclo[37.5.1.0^4,8.0^26,30]pentatetracont-42-ene-23,1'-cyclobutane]-17-carboxamide] | 0.0087 µM | 0.0013 µM | 0.0031 µM | 0.0056 µM |  | 0.0012 µM |  | 0.0048 µM | 0.0006 µM |  |  | A (a compound having 10 or more and less than 20 is denoted as A) | A (a compound having 10 or more and less than 20 is denoted as A) |
